Test system: MV-4-11 cells
Test: Gene expression microarray analysis (Affymetrix PrimeView) and GSEA
Assay type: cell-based, human
Set-up: RFU PODN (11730768_x_at) / Fold change /veh PODN (11730768_x_at) / RFU LINC00158 (11744669_a_at) / Fold change /veh LINC00158 (11744669_a_at) / RFU DUSP10 (11751237_a_at) / Fold change /veh DUSP10 (11751237_a_at) / RFU ID3 (11757404_x_at) / Fold change /veh ID3 (11757404_x_at) / RFU PLEKHG5 (11737974_s_at) / Fold change /veh PLEKHG5 (11737974_s_at) / RFU LRRC4B (11730491_at) / Fold change /veh LRRC4B (11730491_at) / RFU GIMAP4 (11747438_a_at) / Fold change /veh GIMAP4 (11747438_a_at) / RFU KRT8 (11758183_x_at) / Fold change /veh KRT8 (11758183_x_at) / RFU CNN1 (11734310_a_at) / Fold change /veh CNN1 (11734310_a_at) / RFU VPS37D (11726825_at) / Fold change /veh VPS37D (11726825_at) / RFU C10orf10 (11716522_x_at) / Fold change /veh C10orf10 (11716522_x_at) / RFU KIR2DL2 /// KIR2DL4 /// KIR2DL5A /// KIR2DL5B /// KIR2DS1 /// KIR2DS2 /// KIR2DS3 /// KIR2DS4 /// KIR3DL3 /// KIR3DL3 /// KIR3DS1 (11738374_at) / Fold change /veh KIR2DL2 /// KIR2DL4 /// KIR2DL5A /// KIR2DL5B /// KIR2DS1 /// KIR2DS2 /// KIR2DS3 /// KIR2DS4 /// KIR3DL3 /// KIR3DL3 /// KIR3DS1 (11738374_at) / RFU C1QL1 (11718748_at) / Fold change /veh C1QL1 (11718748_at) / RFU TMPRSS4 (11747572_a_at) / Fold change /veh TMPRSS4 (11747572_a_at) / RFU HAMP (11756126_x_at) / Fold change /veh HAMP (11756126_x_at) / RFU RNFT2 (11725882_a_at) / Fold change /veh RNFT2 (11725882_a_at) / RFU NR4A2 (11747474_a_at) / Fold change /veh NR4A2 (11747474_a_at) / RFU ABCC12 (11746883_a_at) / Fold change /veh ABCC12 (11746883_a_at) / RFU TMEM136 (11760407_x_at) / Fold change /veh TMEM136 (11760407_x_at) / RFU CLDN22 /// WWC2 (11732394_at) / Fold change /veh CLDN22 /// WWC2 (11732394_at) / RFU HLA-DPB1 (11760878_x_at) / Fold change /veh HLA-DPB1 (11760878_x_at) / RFU SPINT1 (11716480_a_at) / Fold change /veh SPINT1 (11716480_a_at) / RFU GAP43 (11754022_s_at) / Fold change /veh GAP43 (11754022_s_at) / RFU A4GNT (11735810_at) / Fold change /veh A4GNT (11735810_at) / RFU PRB3 (11715151_x_at) / Fold change /veh PRB3 (11715151_x_at) / RFU TUBB4B (11761932_at) / Fold change /veh TUBB4B (11761932_at) / RFU CAPN14 (11732068_a_at) / Fold change /veh CAPN14 (11732068_a_at) / RFU TMCC2 (11721928_a_at) / Fold change /veh TMCC2 (11721928_a_at) / RFU IRGQ (11745062_a_at) / Fold change /veh IRGQ (11745062_a_at) / RFU FAM174B (11720279_a_at) / Fold change /veh FAM174B (11720279_a_at) / RFU TMPRSS4 (11748680_a_at) / Fold change /veh TMPRSS4 (11748680_a_at) / RFU FAM212B (11763350_a_at) / Fold change /veh FAM212B (11763350_a_at) / RFU PLEKHG5 (11743358_a_at) / Fold change /veh PLEKHG5 (11743358_a_at) / RFU ZSCAN30 (11745921_a_at) / Fold change /veh ZSCAN30 (11745921_a_at) / RFU CMKLR1 (11741424_a_at) / Fold change /veh CMKLR1 (11741424_a_at) / RFU LOC101060620 /// MAPK8IP1 (11723275_at) / Fold change /veh LOC101060620 /// MAPK8IP1 (11723275_at) / RFU SPTSSB (11747773_x_at) / Fold change /veh SPTSSB (11747773_x_at) / RFU PRSS12 (11739890_at) / Fold change /veh PRSS12 (11739890_at) / RFU BIN1 (11741810_x_at) / Fold change /veh BIN1 (11741810_x_at) / RFU WNT11 (11732464_a_at) / Fold change /veh WNT11 (11732464_a_at) / RFU C10orf10 (11716521_a_at) / Fold change /veh C10orf10 (11716521_a_at) / RFU C5orf56 (11738089_at) / Fold change /veh C5orf56 (11738089_at) / RFU CYB561 (11721691_x_at) / Fold change /veh CYB561 (11721691_x_at) / RFU ANKRD19P (11752326_a_at) / Fold change /veh ANKRD19P (11752326_a_at) / RFU OR2T12 /// OR2T33 /// OR2T8 (11738714_s_at) / Fold change /veh OR2T12 /// OR2T33 /// OR2T8 (11738714_s_at) / RFU VCAN (11748164_a_at) / Fold change /veh VCAN (11748164_a_at) / RFU JSRP1 (11732532_at) / Fold change /veh JSRP1 (11732532_at) / RFU KRTAP10-11 (11738290_x_at) / Fold change /veh KRTAP10-11 (11738290_x_at) / RFU MYO3A (11730013_a_at) / Fold change /veh MYO3A (11730013_a_at) / RFU EBF3 (11725865_a_at) / Fold change /veh EBF3 (11725865_a_at) / RFU CAMK2N1 (11719241_x_at) / Fold change /veh CAMK2N1 (11719241_x_at) / RFU C5orf56 (11738088_a_at) / Fold change /veh C5orf56 (11738088_a_at) / RFU OLFML3 (11715873_a_at) / Fold change /veh OLFML3 (11715873_a_at) / RFU LOC100653217 /// NTM (11731650_a_at) / Fold change /veh LOC100653217 /// NTM (11731650_a_at) / RFU MAPK11 (11762145_a_at) / Fold change /veh MAPK11 (11762145_a_at) / RFU FIZ1 (11724087_x_at) / Fold change /veh FIZ1 (11724087_x_at) / RFU OASL (11726364_x_at) / Fold change /veh OASL (11726364_x_at) / RFU SOX15 (11748057_x_at) / Fold change /veh SOX15 (11748057_x_at) / RFU CD79A (11719716_a_at) / Fold change /veh CD79A (11719716_a_at) / RFU HIST1H1D (11736915_at) / Fold change /veh HIST1H1D (11736915_at) / RFU CASKIN2 (11723855_a_at) / Fold change /veh CASKIN2 (11723855_a_at) / RFU LOC730098 (11760151_x_at) / Fold change /veh LOC730098 (11760151_x_at) / RFU OR4N2 (11742367_at) / Fold change /veh OR4N2 (11742367_at) / RFU PRRT2 (11749266_a_at) / Fold change /veh PRRT2 (11749266_a_at) / RFU SNX32 (11753110_a_at) / Fold change /veh SNX32 (11753110_a_at) / RFU CDHR5 (11726645_a_at) / Fold change /veh CDHR5 (11726645_a_at) / RFU RCAN1 (11760418_a_at) / Fold change /veh RCAN1 (11760418_a_at) / RFU FAM167A (11723789_a_at) / Fold change /veh FAM167A (11723789_a_at) / RFU FAM26E (11764081_at) / Fold change /veh FAM26E (11764081_at) / RFU ISYNA1 (11749810_s_at) / Fold change /veh ISYNA1 (11749810_s_at) / RFU ACY1 (11761880_at) / Fold change /veh ACY1 (11761880_at) / RFU 11764098_at / Fold change /veh 11764098_at / RFU SAMD14 (11745864_x_at) / Fold change /veh SAMD14 (11745864_x_at) / RFU NPB (11741838_a_at) / Fold change /veh NPB (11741838_a_at) / RFU TMPRSS6 (11731388_a_at) / Fold change /veh TMPRSS6 (11731388_a_at) / RFU KRTAP10-2 (11738614_at) / Fold change /veh KRTAP10-2 (11738614_at) / RFU ARHGAP8 /// PRR5-ARHGAP8 (11727945_x_at) / Fold change /veh ARHGAP8 /// PRR5-ARHGAP8 (11727945_x_at) / RFU KRTAP5-7 /// NADSYN1 (11734609_at) / Fold change /veh KRTAP5-7 /// NADSYN1 (11734609_at) / RFU RASL12 (11751679_a_at) / Fold change /veh RASL12 (11751679_a_at) / RFU CDKN2B (11736163_a_at) / Fold change /veh CDKN2B (11736163_a_at) / RFU PRF1 (11729649_at) / Fold change /veh PRF1 (11729649_at) / RFU, ZNF638 /// ZNF638-IT1 / Fold change vs veh, ZNF638 /// ZNF638-IT1 / RFU, PANK3 / Fold change vs veh, PANK3 / RFU, SH3YL1 / Fold change vs veh, SH3YL1 / RFU, ZEB2 / Fold change vs veh, ZEB2 / RFU, NRIP1 / Fold change vs veh, NRIP1 / RFU, PTTG1IP / Fold change vs veh, PTTG1IP / RFU, CAPN2 / Fold change vs veh, CAPN2 / RFU, MED14 / Fold change vs veh, MED14 / RFU, SNORA58 / Fold change vs veh, SNORA58 / RFU, C1orf63 / Fold change vs veh, C1orf63 / RFU, LRRFIP1 / Fold change vs veh, LRRFIP1 / RFU, NDUFAF7 / Fold change vs veh, NDUFAF7 / RFU, SLC12A2 / Fold change vs veh, SLC12A2 / RFU, IBTK / Fold change vs veh, IBTK / RFU, ESF1 / Fold change vs veh, ESF1 / Fold change vs veh, TMEM50B / RFU, TAOK1 / Fold change vs veh, TAOK1 / RFU, ACBD3 / Fold change vs veh, ACBD3 / RFU, TMA16 / Fold change vs veh, TMA16 / RFU, RWDD3 / Fold change vs veh, RWDD3 / RFU, BCAT1 / Fold change vs veh, BCAT1 / RFU, EDEM3 / Fold change vs veh, EDEM3 / RFU, TMEM33 / Fold change vs veh, TMEM33 / RFU, WDR75 / Fold change vs veh, WDR75 / RFU, AHCTF1 / Fold change vs veh, AHCTF1 / RFU, TFRC / Fold change vs veh, TFRC / RFU, ZDHHC17 / Fold change vs veh, ZDHHC17 / RFU, NOM1 / Fold change vs veh, NOM1 / RFU, ARL8B / Fold change vs veh, ARL8B / RFU, ZBTB11 / Fold change vs veh, ZBTB11 / RFU, TAMM41 / Fold change vs veh, TAMM41 / RFU, KIAA1704 /// LOC100996395 / Fold change vs veh, KIAA1704 /// LOC100996395 / RFU, ING1 / Fold change vs veh, ING1 / RFU, TRMT61B / Fold change vs veh, TRMT61B / RFU, FUBP3 / Fold change vs veh, FUBP3 / RFU, TP53 / Fold change vs veh, TP53 / RFU, TNKS2 / Fold change vs veh, TNKS2 / RFU, ZFP14 / Fold change vs veh, ZFP14 / RFU, ACTR2 / Fold change vs veh, ACTR2 / RFU, PPP3R1 / Fold change vs veh, PPP3R1 / RFU, PIK3R1 / Fold change vs veh, PIK3R1 / RFU, HNRNPA1 / Fold change vs veh, HNRNPA1 / RFU, RNF170 / Fold change vs veh, RNF170 / RFU, ZNF28 / Fold change vs veh, ZNF28 / RFU, RNGTT / Fold change vs veh, RNGTT / RFU, OGT / Fold change vs veh, OGT / RFU, BRD1 / Fold change vs veh, BRD1 / RFU, MARS / Fold change vs veh, MARS / RFU, ZNF655 / Fold change vs veh, ZNF655 / RFU, FAHD1 / Fold change vs veh, FAHD1 / RFU, BDP1 / Fold change vs veh, BDP1 / RFU, LRRCC1 / Fold change vs veh, LRRCC1 / RFU, ARID1A / Fold change vs veh, ARID1A / RFU, ZNF146 / Fold change vs veh, ZNF146 / RFU, ZNF330 / Fold change vs veh, ZNF330 / RFU, GPN3 / Fold change vs veh, GPN3 / RFU, C9orf123 / Fold change vs veh, C9orf123 / RFU, N4BP2L2 / Fold change vs veh, N4BP2L2 / RFU, ARFIP1 / Fold change vs veh, ARFIP1 / RFU, FAM179B / Fold change vs veh, FAM179B / RFU, BCL10 / Fold change vs veh, BCL10 / RFU, UHRF1BP1L / Fold change vs veh, UHRF1BP1L / RFU, BET1 / Fold change vs veh, BET1 / RFU, CNOT2 / Fold change vs veh, CNOT2 / RFU, ZNF268 / Fold change vs veh, ZNF268 / Fold change vs veh, ZNF507 / RFU, DGCR2 / Fold change vs veh, DGCR2 / RFU, WDSUB1 / Fold change vs veh, WDSUB1 / Fold change vs veh, HSP90B1 /// MIR3652 / RFU, ADSS / Fold change vs veh, ADSS / RFU, GK / Fold change vs veh, GK / RFU, ZNF148 / Fold change vs veh, ZNF148 / RFU, TAF9 / Fold change vs veh, TAF9 / RFU, SLC1A5 / Fold change vs veh, SLC1A5 / RFU, SLMO2 / Fold change vs veh, SLMO2 / RFU, ABCC4 / Fold change vs veh, ABCC4 / RFU, LOC101060439 /// RAP1B / Fold change vs veh, LOC101060439 /// RAP1B / RFU, RFX7 / Fold change vs veh, RFX7 / RFU, GTPBP10 / Fold change vs veh, GTPBP10 / RFU, CNEP1R1 / Fold change vs veh, CNEP1R1 / RFU, BIVM-ERCC5 /// ERCC5 / Fold change vs veh, BIVM-ERCC5 /// ERCC5 / RFU, ILF3 / Fold change vs veh, ILF3 / RFU 11762660_at / Fold change /veh 11762660_at / RFU VCAN (11757783_s_at) / Fold change /veh VCAN (11757783_s_at) / RFU DDX43 (11728927_at) / Fold change /veh DDX43 (11728927_at) / RFU KRT8 (11758188_x_at) / Fold change /veh KRT8 (11758188_x_at) / RFU NKD1 (11759106_at) / Fold change /veh NKD1 (11759106_at) / RFU SRD5A1 (11742802_a_at) / Fold change /veh SRD5A1 (11742802_a_at) / RFU TPSAB1 /// TPSB2 (11721975_s_at) / Fold change /veh TPSAB1 /// TPSB2 (11721975_s_at) / RFU GSTM3 (11746129_a_at) / Fold change /veh GSTM3 (11746129_a_at) / RFU IL23R (11737362_x_at) / Fold change /veh IL23R (11737362_x_at) / RFU TMEM51 (11727254_a_at) / Fold change /veh TMEM51 (11727254_a_at) / RFU PIWIL2 (11732686_x_at) / Fold change /veh PIWIL2 (11732686_x_at) / RFU ORM1 (11744905_x_at) / Fold change /veh ORM1 (11744905_x_at) / RFU CCDC152 (11743942_at) / Fold change /veh CCDC152 (11743942_at) / RFU ECM1 (11717891_a_at) / Fold change /veh ECM1 (11717891_a_at) / RFU IL23R (11748794_a_at) / Fold change /veh IL23R (11748794_a_at) / RFU TNFAIP8L3 (11732012_x_at) / Fold change /veh TNFAIP8L3 (11732012_x_at) / RFU MBOAT4 (11741988_at) / Fold change /veh MBOAT4 (11741988_at) / RFU 11764193_at / Fold change /veh 11764193_at / RFU TMEM53 (11763286_at) / Fold change /veh TMEM53 (11763286_at) / RFU MAGEB2 (11727129_at) / Fold change /veh MAGEB2 (11727129_at) / RFU TMEM200A (11744735_a_at) / Fold change /veh TMEM200A (11744735_a_at) / RFU CCDC152 (11751479_a_at) / Fold change /veh CCDC152 (11751479_a_at) / RFU FAM211A (11726209_a_at) / Fold change /veh FAM211A (11726209_a_at) / RFU RGS16 (11746705_a_at) / Fold change /veh RGS16 (11746705_a_at) / RFU VCAN (11755009_s_at) / Fold change /veh VCAN (11755009_s_at) / RFU RHOB (11743442_s_at) / Fold change /veh RHOB (11743442_s_at) / RFU RGS16 (11720943_a_at) / Fold change /veh RGS16 (11720943_a_at) / RFU RGS16 (11720944_at) / Fold change /veh RGS16 (11720944_at) / RFU, VPS4B / Fold change vs veh, VPS4B / RFU, CREB1 / Fold change vs veh, CREB1 / RFU, DNAJC13 / Fold change vs veh, DNAJC13 / RFU, GNAQ / Fold change vs veh, GNAQ / RFU, CDK5R1 / Fold change vs veh, CDK5R1 / RFU, ZRANB3 / Fold change vs veh, ZRANB3 / RFU, CUL4A / Fold change vs veh, CUL4A / RFU, CCNY / Fold change vs veh, CCNY / RFU, UFL1 / Fold change vs veh, UFL1 / RFU, COG3 / Fold change vs veh, COG3 / RFU, DIAPH2 / Fold change vs veh, DIAPH2 / RFU, SKA2 / Fold change vs veh, SKA2 / RFU, AFF3 / Fold change vs veh, AFF3 / RFU, LMF1 / Fold change vs veh, LMF1 / RFU, IPO11 / Fold change vs veh, IPO11 / RFU, DFFB / Fold change vs veh, DFFB / RFU, FOXP1 / Fold change vs veh, FOXP1 / RFU, CARD8 / Fold change vs veh, CARD8 / RFU, STRN3 / Fold change vs veh, STRN3 / RFU, ADK / Fold change vs veh, ADK / RFU, RASSF2 / Fold change vs veh, RASSF2 / RFU, WIPF1 / Fold change vs veh, WIPF1 / RFU, LARP1B / Fold change vs veh, LARP1B / RFU, RASA1 / Fold change vs veh, RASA1 / RFU, RB1 / Fold change vs veh, RB1 / RFU, PPFIA1 / Fold change vs veh, PPFIA1 / RFU, MAT2A / Fold change vs veh, MAT2A / RFU, CCT5 / Fold change vs veh, CCT5 / RFU, WDR92 / Fold change vs veh, WDR92 / RFU, CUX1 / Fold change vs veh, CUX1 / RFU, TTC7A / Fold change vs veh, TTC7A / RFU, TMEM135 / Fold change vs veh, TMEM135 / RFU, DEPTOR / Fold change vs veh, DEPTOR / RFU, CPM / Fold change vs veh, CPM / RFU, DNAJB6 / Fold change vs veh, DNAJB6 / RFU, CACNA2D3 / Fold change vs veh, CACNA2D3 / RFU, DTX4 / Fold change vs veh, DTX4 / RFU, TFCP2 / Fold change vs veh, TFCP2 / RFU, GMCL1 /// GMCL1P1 / Fold change vs veh, GMCL1 /// GMCL1P1 / RFU, AEBP2 / Fold change vs veh, AEBP2 / RFU, SNHG1 /// SNORD22 /// SNORD25 /// SNORD26 /// SNORD27 /// SNORD28 /// SNORD29 /// SNORD31 / Fold change vs veh, SNHG1 /// SNORD22 /// SNORD25 /// SNORD26 /// SNORD27 /// SNORD28 /// SNORD29 /// SNORD31 / Fold change (Aza/veh), C12orf56 (ProbeSet 11735607_a_at) / Fold change (ACY-1035/veh), C12orf56 (ProbeSet 11735607_a_at) / Fold change (Aza/veh), FGFR1OP (ProbeSet 11751329_s_at) / Fold change (ACY-1035/veh), FGFR1OP (ProbeSet 11751329_s_at) / Fold change (Aza/veh), VPS36 (ProbeSet 11739960_a_at) / Fold change (ACY-1035/veh), VPS36 (ProbeSet 11739960_a_at) / RFU SYPL1 (11715823_x_at) / Fold change /veh SYPL1 (11715823_x_at) / RFU IGFBP7 (11715501_s_at) / Fold change /veh IGFBP7 (11715501_s_at) / RFU REEP3 (11722064_at) / Fold change /veh REEP3 (11722064_at) / RFU IGLL1 (11728026_x_at) / Fold change /veh IGLL1 (11728026_x_at): dose or concentration left out as unconfirmed
Conditions: MV-4-11 cells, 48 hours

Nc1ncn([C@@H]2O[C@H](CO)[C@@H](O)[C@H]2O)c(=O)n1 [azacitidine]
RFU FAM212B (11763350_a_at): 32.55 RFU

From PMC5218480 (PLoS ONE, 2017)
